Laboratory results reported in patent publication US20250034135A1, “ANTI-APOPTOTIC PROTEIN BCL-2 INHIBITOR, PHARMACEUTICAL COMPOSITION AND USES THEREOF” (HANGZHOU HEALZEN THERAPEUTICS CO., LTD., priority 2021, published 2025).

biological target: BCL2 (Homo sapiens (Human), UniProt P10415); test: Molecular level activity test of anti-apoptotic protein BCL2 (HTRF, binding to Bim peptide); conditions: HTRF, binding of BCL2 to Bim peptide; read-out: BCL2 nM (inhibitory activity, IC50)
How it was run: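 Step one: compound, supplied in 2% DMSO, is mixed with His-tagged BCL2 and biotinylated Bim peptide and reacted for 1 h. Step two: anti-His and streptavidin-XL665 reagents in detection buffer are added. Step three: after a 4 h room-temperature incubation, time-resolved fluorescence is measured.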

Sequence of BCL2 (P10415 whole entry): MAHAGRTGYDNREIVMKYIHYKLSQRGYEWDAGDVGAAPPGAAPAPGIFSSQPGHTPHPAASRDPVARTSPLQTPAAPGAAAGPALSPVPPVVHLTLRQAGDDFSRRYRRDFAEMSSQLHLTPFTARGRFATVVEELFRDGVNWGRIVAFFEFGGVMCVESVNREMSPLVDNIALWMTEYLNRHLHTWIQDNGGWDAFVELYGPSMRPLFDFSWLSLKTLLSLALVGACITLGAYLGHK

Row | IC50 [nM] | Structure (SMILES)
1 | < 10 | CC(C)c1ccccc1[C@@H]1CCCN1C1CC2(CCN(c3cc(Oc4cnc5[nH]ccc5c4)c(C(=O)NS(=O)(=O)c4cc([N+](=O)[O-])c(NC[C@H]5CC[C@](C)(O)CC5)c5c4CCO5)cc3F)CC2)C1 [compound 100, 2-((1H-pyrrolo[2,3-b]pyrid-5-yl)oxy)-5-fluoro-N-((7-((((1r, 4r)-4-hydroxy-4-methylcyclohexyl)methyl)amino)-6-nitro-2,3-dihydrobenzofuran-4-yl)sulfonyl)-4-(2-((S)-2-(2-isopropylphenyl)pyrrolidin-1-yl)-7-azaspiro[3.5]non-7-yl)benzamide]
2 | < 10 | CC(C)c1ccccc1[C@@H]1CCCN1C1CC2(CCN(c3cc(Oc4cnc5[nH]ccc5c4)c(C(=O)NS(=O)(=O)c4cc([N+](=O)[O-])c(NCC5(F)CCOCC5)c5c4OCO5)cc3F)CC2)C1 [compound 101, (S)-2-((1H-pyrrolo[2,3-b]pyrid-5-yl)oxy)-5-fluoro-N-((7-(((4-fluorotetrahydro-2H-pyran-4-yl)methyl)amino)-6-nitrobenzo[d][1,3]dioxocyclopent-4-yl)sulfonyl)-4-(2-(2-(2-isopropylphenyl)pyrrolidin-1-yl)-7-azaspiro[3.5]non-7-yl)benzamide]
3 | < 10 | CC(C)c1ccccc1[C@@H]1CCCN1C1CC2(CCN(c3cc(Oc4cnc5[nH]ccc5c4)c(C(=O)NS(=O)(=O)c4cc([N+](=O)[O-])c(NCC5(F)CCOCC5)c5occc45)cc3F)CC2)C1 [compound 102, (S)-2-((1H-pyrrolo[2,3-b]pyrid-5-yl)oxy)-5-fluoro-N-((7-(((4-fluorotetrahydro-2H-pyran-4-yl)methyl)amino)-6-nitrobenzofuran-4-yl)sulfonyl)-4-(2-(2-(2-isopropylphenyl)pyrrolidin-1-yl)-7-azaspiro[3.5]non-7-yl)benzamide]
4 | < 10 | CC(C)c1ccccc1[C@@H]1CCCN1C1CC2(CCN(c3cc(Oc4cnc5[nH]ccc5c4)c(C(=O)NS(=O)(=O)c4cc([N+](=O)[O-])c(NCC5(F)CCOCC5)c5ocnc45)cc3F)CC2)C1 [compound 103, (S)-2-((1H-pyrrolo[2,3-b]pyrid-5-yl)oxy)-5-fluoro-N-((7-(((4-fluorotetrahydro-2H-pyran-4-yl)methyl)amino)-6-nitrobenzo[d]oxazol-4-yl)sulfonyl)-4-(2-(2-(2-isopropylphenyl)pyrrolidin-1-yl)-7-azaspiro[3.5]non-7-yl)benzamide]
5 | < 10 | CC(C)c1ccccc1[C@@H]1CCCN1C1CC2(CCN(c3cc(Oc4cnc5[nH]ccc5c4)c(C(=O)NS(=O)(=O)c4cc([N+](=O)[O-])c(NCC5(F)CCOCC5)c5scnc45)cc3F)CC2)C1 [compound 104, (S)-2-((1H-pyrrolo[2,3-b]pyrid-5-yl)oxy)-5-fluoro-N-((7-(((4-fluorotetrahydro-2H-pyran-4-yl)methyl)amino)-6-nitrobenzo[d]thiazol-4-yl)sulfonyl)-4-(2-(2-(2-isopropylphenyl)pyrrolidin-1-yl)-7-azaspiro[3.5]non-7-yl)benzamide]
6 | < 10 | CC(C)c1ccccc1[C@@H]1CCCN1C1CC2(CCN(c3cc(Oc4cnc5[nH]ccc5c4)c(C(=O)NS(=O)(=O)c4cc([N+](=O)[O-])c(NCC5(F)CCOCC5)c5c4CCO5)cc3F)CC2)C1 [compound 105, (S)-2-((1H-pyrrolo[2,3-b]pyrid-5-yl)oxy)-5-fluoro-N-((7-(((4-fluorotetrahydro-2H-pyran-4-yl)methyl)amino)-6-nitro-2,3-dihydrobenzofuran-4-yl)sulfonyl)-4-(2-(2-(2-isopropylphenyl)pyrrolidin-1-yl)-7-azaspiro[3.5]non-7-yl)benzamide]
7 | < 10 | COc1ccc(CN2CCN(C3CC4(CCN(c5cc(Oc6cnc7[nH]ccc7c6)c(C(=O)NS(=O)(=O)c6cc([N+](=O)[O-])c(NCC7(F)CCOCC7)c7c6OCO7)cc5F)CC4)C3)[C@H](c3ccccc3C(C)C)C2)cc1 [compound 106, (R)-2-((1H-pyrrolo[2,3-b]pyrid-5-yl)oxy)-5-fluoro-N-((7-(((4-fluorotetrahydro-2H-pyran-4-yl)methyl)amino)-6-nitrobenzo[d][1,3]dioxocyclopent-4-yl)sulfonyl)-4-(2-(2-(2-isopropylphenyl)-4-(4-methoxybenzyl)piperazin-1-yl)-7-azaspiro[3.5]non-7-yl)benzamide]
8 | < 10 | COc1ccc(CN2CCN(C3CC4(CCN(c5cc(Oc6cnc7[nH]ccc7c6)c(C(=O)NS(=O)(=O)c6cc([N+](=O)[O-])c(NCC7(F)CCOCC7)c7ocnc67)cc5F)CC4)C3)[C@H](c3ccccc3C(C)C)C2)cc1 [compound 107, (R)-2-((1H-pyrrolo[2,3-b]pyrid-5-yl)oxy)-5-fluoro-N-((7-(((4-fluorotetrahydro-2H-pyran-4-yl)methyl)amino)-6-nitrobenzo[d]oxazol-4-yl)sulfonyl)-4-(2-(2-(2-isopropylphenyl)-4-(4-methoxybenzyl)piperazin-1-yl)-7-azaspiro[3.5]non-7-yl)benzamide]
9 | < 10 | COc1ccc(CN2CCN(C3CC4(CCN(c5cc(Oc6cnc7[nH]ccc7c6)c(C(=O)NS(=O)(=O)c6cc([N+](=O)[O-])c(NCC7(F)CCOCC7)c7scnc67)cc5F)CC4)C3)[C@H](c3ccccc3C(C)C)C2)cc1 [compound 108]
10 | < 10 | COc1ccc(CN2CCN(C3CC4(CCN(c5cc(Oc6cnc7[nH]ccc7c6)c(C(=O)NS(=O)(=O)c6cc([N+](=O)[O-])c(NCC7(F)CCOCC7)c7occc67)cc5F)CC4)C3)[C@H](c3ccccc3C(C)C)C2)cc1 [compound 109, (R)-2-((1H-pyrrolo[2,3-b]pyrid-5-yl)oxy)-5-fluoro-N-((7-(((4-fluorotetrahydro-2H-pyran-4-yl)methyl)amino)-6-nitrobenzofuran-4-yl)sulfonyl)-4-(2-(2-(2-isopropylphenyl)-4-(4-methoxybenzyl)piperazin-1-yl)-7-azaspiro[3.5]non-7-yl)benzamide]
11 | < 10 | COc1ccc(CN2CCN(C3CC4(CCN(c5cc(Oc6cnc7[nH]ccc7c6)c(C(=O)NS(=O)(=O)c6cc([N+](=O)[O-])c(NCC7(F)CCOCC7)c7c6OCCO7)cc5F)CC4)C3)[C@H](c3ccccc3C(C)C)C2)cc1 [compound 110, (R)-2-((1H-pyrrolo[2,3-b]pyrid-5-yl)oxy)-5-fluoro-N-((8-(((4-fluorotetrahydro-2H-pyran-4-yl)methyl)amino)-7-nitro-2,3-dihydrobenzo[b][1,4]dioxane-5yl)sulfonyl)-4-(2-(2-(2-isopropylphenyl)-4-(4-methoxybenzyl)piperazin-1-yl)-7-azaspiro[3.5]non-7-yl)benzamide]
12 | < 10 | COc1ccc(CN2CCN(C3CC4(CCN(c5cc(Oc6cnc7[nH]ccc7c6)c(C(=O)NS(=O)(=O)c6cc([N+](=O)[O-])c(NCC7(F)CCOCC7)c7oc(C)cc67)cc5F)CC4)C3)[C@H](c3ccccc3C(C)C)C2)cc1 [compound 111, (R)-2-((1H-pyrrolo[2,3-b]pyrid-5-yl)oxy)-5-fluoro-N-((7-(((4-fluorotetrahydro-2H-pyran-4-yl)methyl)amino)-2-methyl-6-nitrobenzofuran-4-yl)sulfonyl)-4-(2-(2-(2-isopropylphenyl)-4-(4-methoxybenzyl)piperazin-1-yl)-7-azaspiro[3.5]non-7-yl)benzamide]
13 | < 10 | COc1ccc(CN2CCN(C3CC4(CCN(c5cc(Oc6cnc7[nH]ccc7c6)c(C(=O)NS(=O)(=O)c6cc([N+](=O)[O-])c(NCC7(F)CCOCC7)c7c6CCO7)cc5F)CC4)C3)[C@H](c3ccccc3C(C)C)C2)cc1 [compound 112, (R)-2-((1H-pyrrolo[2,3-b]pyrid-5-yl)oxy)-5-fluoro-N-((7-(((4-fluorotetrahydro-2H-pyran-4-yl)methyl)amino)-6-nitro-2,3-dihydrobenzofuran-4-yl)sulfonyl)-4-(2-(2-(2-isopropylphenyl)-4-(4-methoxybenzyl)piperazin-1-yl)-7-azaspiro[3.5]non-7-yl)benzamide]
14 | < 10 | COc1ccc(CN2CCN(C3CC4(CCN(c5cc(Oc6cnc7[nH]ccc7c6)c(C(=O)NS(=O)(=O)c6cc([N+](=O)[O-])c(NC[C@H]7CC[C@](C)(O)CC7)c7c6OCO7)cc5F)CC4)C3)[C@H](c3ccccc3C(C)C)C2)cc1 [compound 113, 2-((1H-pyrrolo[2,3-b]pyrid-5-yl)oxy)-5-fluoro-N-((7-((((1r, 4r)-4-hydroxy-4-methylcyclohexyl)methyl)amino)-6-nitrobenzo[d][1,3]dioxocyclopent-4-yl)sulfonyl)-4-(2-((R)-2-(2-isopropylphenyl)-4-(4-methoxybenzyl)piperazin-1-yl)-7-azaspiro[3.5]non-7-yl)benzamide]
15 | < 10 | COc1ccc(CN2CCN(C3CC4(CCN(c5cc(Oc6cnc7[nH]ccc7c6)c(C(=O)NS(=O)(=O)c6cc([N+](=O)[O-])c(NC[C@H]7CC[C@](C)(O)CC7)c7ocnc67)cc5F)CC4)C3)[C@H](c3ccccc3C(C)C)C2)cc1 [compound 114, 2-((1H-pyrrolo[2,3-b]pyrid-5-yl)oxy)-5-fluoro-N-((7-((((1r, 4r)-4-hydroxy-4-methylcyclohexyl)methyl)amino)-6-nitrobenzo[d]oxazol-4-yl)sulfonyl)-4-(2-((R)-2-(2-isopropylphenyl)-4-(4-methoxybenzyl)piperazin-1-yl)-7-azaspiro[3.5]non-7-yl)benzamide]
16 | < 10 | COc1ccc(CN2CCN(C3CC4(CCN(c5cc(Oc6cnc7[nH]ccc7c6)c(C(=O)NS(=O)(=O)c6cc([N+](=O)[O-])c(NC[C@H]7CC[C@](C)(O)CC7)c7occc67)cc5F)CC4)C3)[C@H](c3ccccc3C(C)C)C2)cc1 [compound 115, 2-((1H-pyrrolo[2,3-b]pyrid-5-yl)oxy)-5-fluoro-N-((7-((((1r, 4r)-4-hydroxy-4-methylcyclohexyl)methyl)amino)-6-nitrobenzofuran-4-yl)sulfonyl)-4-(2-((R)-2-(2-isopropylphenyl)-4-(4-methoxybenzyl)piperazin-1-yl)-7-azaspiro[3.5]non-7-yl)benzamide]
